Experimental data reported in patent US8461083B2, “Herbicidal compounds” (Syngenta Limited, priority 2008, dated 2013).

What was measured:
Type in all cases: in vivo
[1] = test system: Alopecurus myosuroides (ALOMY); assay: Post-emergence herbicidal glasshouse test; settings: post-emergence (sprayed after 8 days cultivation), evaluated after 13 days, 100=total damage to plant, 0=no damage to plant; for POST Application ALOMY, damage to plant: 1000 g/ha; for pest or weed control at 1000 g/ha: Alopecurus myosuroides, 312 h, read-out: POST Application ALOMY, damage to plant
How it was run: (§1)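 Glasshouse pots at 24/16 °C day/night, 14 h photoperiod and 65% humidity were treated once at 1000 g/ha, using 0.5% Tween 20 in acetone/water 50:50, before (1 d) or after (8 d) emergence. Phytotoxicity was scored 0–100 at 13 days.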

[2] = test system: Amaranthus retoflexus (AMARE); assay: Post-emergence herbicidal glasshouse test; settings: post-emergence (sprayed after 8 days cultivation), evaluated after 13 days, 100=total damage to plant, 0=no damage to plant; for POST Application AMARE, damage to plant: 1000 g/ha; for pest or weed control at 1000 g/ha: Amaranthus retroflexus, 312 h, read-out: POST Application AMARE, damage to plant
How it was run: as §1

[3] = test system: Echinochloa crus-galli (ECHCG); assay: Post-emergence herbicidal glasshouse test; settings: post-emergence (sprayed after 8 days cultivation), evaluated after 13 days, 100=total damage to plant, 0=no damage to plant; for POST Application ECHCG, damage to plant: 1000 g/ha; for pest or weed control at 1000 g/ha: Echinochloa crus-galli, 312 h, read-out: POST Application ECHCG, damage to plant
How it was run: (§2)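 Rates of 1000 g/ha are applied as an acetone/water (50:50) spray with 0.5% Tween 20 to soil-sown pots, pre-emergence at day 1 or post-emergence at day 8. Percent damage is assessed after 13 days.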

[4] = test system: Setaria faberi (SETFA); assay: Post-emergence herbicidal glasshouse test; settings: post-emergence (sprayed after 8 days cultivation), evaluated after 13 days, 100=total damage to plant, 0=no damage to plant; for POST Application SETFA, damage to plant: 1000 g/ha; for pest or weed control at 1000 g/ha: Setaria faberi, 312 h, read-out: POST Application SETFA, damage to plant
How it was run: as §1

[5] = test system: Solanum nigrum (SOLNI); assay: Post-emergence herbicidal glasshouse test; settings: post-emergence (sprayed after 8 days cultivation), evaluated after 13 days, 100=total damage to plant, 0=no damage to plant; for POST Application SOLNI, damage to plant: 1000 g/ha; for pest or weed control at 1000 g/ha: Solanum nigrum, 312 h, read-out: POST Application SOLNI, damage to plant
How it was run: as §1

[6] = test system: Alopecurus myosuroides (ALOMY); assay: Pre-emergence herbicidal glasshouse test; settings: pre-emergence (sprayed after one day cultivation), evaluated after 13 days, 100=total damage to plant, 0=no damage to plant; for PRE Application ALOMY, damage to plant: 1000 g/ha; for pest or weed control at 1000 g/ha: Alopecurus myosuroides, 312 h, read-out: PRE Application ALOMY, damage to plant
How it was run: as §1

[7] = test system: Amaranthus retoflexus (AMARE); assay: Pre-emergence herbicidal glasshouse test; settings: pre-emergence (sprayed after one day cultivation), evaluated after 13 days, 100=total damage to plant, 0=no damage to plant; for PRE Application AMARE, damage to plant: 1000 g/ha; for pest or weed control at 1000 g/ha: Amaranthus retroflexus, 312 h, read-out: PRE Application AMARE, damage to plant
How it was run: as §1

[8] = test system: Echinochloa crus-galli (ECHCG); assay: Pre-emergence herbicidal glasshouse test; settings: pre-emergence (sprayed after one day cultivation), evaluated after 13 days, 100=total damage to plant, 0=no damage to plant; for PRE Application ECHCG, damage to plant: 1000 g/ha; for pest or weed control at 1000 g/ha: Echinochloa crus-galli, 312 h, read-out: PRE Application ECHCG, damage to plant
How it was run: as §2

[9] = test system: Setaria faberi (SETFA); assay: Pre-emergence herbicidal glasshouse test; settings: pre-emergence (sprayed after one day cultivation), evaluated after 13 days, 100=total damage to plant, 0=no damage to plant; for PRE Application SETFA, damage to plant: 1000 g/ha; for pest or weed control at 1000 g/ha: Setaria faberi, 312 h, read-out: PRE Application SETFA, damage to plant
How it was run: as §1

[10] = test system: Solanum nigrum (SOLNI); assay: Pre-emergence herbicidal glasshouse test; settings: pre-emergence (sprayed after one day cultivation), evaluated after 13 days, 100=total damage to plant, 0=no damage to plant; for PRE Application SOLNI, damage to plant: 1000 g/ha; for pest or weed control at 1000 g/ha: Solanum nigrum, 312 h, read-out: PRE Application SOLNI, damage to plant
How it was run: as §1

| Structure (SMILES) | POST Application ALOMY, damage to plant [1] | POST Application AMARE, damage to plant [2] | POST Application ECHCG, damage to plant [3] | POST Application SETFA, damage to plant [4] | POST Application SOLNI, damage to plant [5] | PRE Application ALOMY, damage to plant [6] | PRE Application AMARE, damage to plant [7] | PRE Application ECHCG, damage to plant [8] | PRE Application SETFA, damage to plant [9] | PRE Application SOLNI, damage to plant [10] | pest or weed control at 1000 g/ha [1] | pest or weed control at 1000 g/ha [2] | pest or weed control at 1000 g/ha [3] | pest or weed control at 1000 g/ha [4] | pest or weed control at 1000 g/ha [5] | pest or weed control at 1000 g/ha [6] | pest or weed control at 1000 g/ha [7] | pest or weed control at 1000 g/ha [8] | pest or weed control at 1000 g/ha [9] | pest or weed control at 1000 g/ha [10] |
| --- | --- | --- | --- | --- | --- | --- | --- | --- | --- | --- | --- | --- | --- | --- | --- | --- | --- | --- | --- | --- |
| O=C1CCCC(=O)C1C(=O)c1cc2cc(F)c(CCF)nc2nc1C(F)(F)F [Compound 1.69] | 60 | 90 | 80 | 80 | 80 | 60 | 20 | 100 | 90 | 100 | – | – | – | – | – | – | – | – | – | – |
| O=C1CCCC(=O)C1C(=O)c1cc2cc(F)c(NC3CC3)nc2nc1C(F)(F)F [Compound 1.92, 2-[7-(cyclopropylamino)-6-fluoro-2-trifluoromethyl-[1,8]-naphthyridine-3-carbony]-cyclohexane-1,3-dione] | 80 | 100 | 80 | 80 | 80 | 60 | 100 | 100 | 100 | 100 | – | – | – | – | – | – | – | – | – | – |
| Cc1nc2nc(C(F)(F)F)c(C(=O)C3C(=O)C(C)(C)OC(C)(C)C3=O)cc2cc1F [Compound 5.2] | – | – | – | – | – | – | – | – | – | – | 70% | 90% | 80% | 80% | 70% | 90% | 100% | 100% | 100% | 100% |
| N#CCn1c(=O)ccc2cc(C(=O)C3C(=O)CCCC3=O)c(C(F)(F)F)nc21 [Compound 2.3] | 20 | 90 | 80 | 90 | 90 | 20 | 90 | 80 | 60 | 90 | – | – | – | – | – | – | – | – | – | – |
| Cc1nc2nc(C(F)(F)OCC(F)(F)F)c(C(=O)C3C(=O)CCCC3=O)cc2cc1F [Compound 1.91, 2-[6-fluoro-7-methyl-2[(2,2,2-trifluoroethoxy)difluoromethyl]-[1,8]-naphthyridine-3-carbony]-cyclohexane-1,3-dione] | 40 | 90 | 80 | 80 | 90 | 10 | 100 | 100 | 90 | 100 | – | – | – | – | – | – | – | – | – | – |
| CN(Cc1nc2nc(C(F)(F)F)ccc2cc1C(=O)C1C(=O)CCCC1=O)S(C)(=O)=O [Compound 1.108, 2-[{methanesulfonyl-N-methylaminomethyl}-7-trifluoromethyl-[1,8]-naphthyridine-3-carbony]-cyclohexane-1,3-dione] | 20 | 70 | 80 | 80 | 90 | 0 | 80 | 70 | 40 | 90 | – | – | – | – | – | – | – | – | – | – |
| Cc1ccc2cc(C(=O)C3C(=O)CCCC3=O)c(C(F)F)nc2n1 [Compound 1.85, 2-(2-difluoromethyl-7-methyl-[1,8]-naphthyridine-3-carbonyl)-cyclohexane-1,3-dione] | – | – | – | – | – | – | – | – | – | – | 50% | 80% | 80% | 80% | 80% | 10% | 90% | 100% | 80% | 100% |
| CNc1nc2nc(C(F)(F)F)c(C(=O)C3C(=O)CCCC3=O)cc2cc1F [Compound 1.98, 2-[6-fluoro-7-methylamino-2-trifluoromethyl-[1,8]-naphthyridine-3-carbony]-cyclohexane-1,3-dione] | – | – | – | – | – | – | – | – | – | – | 70% | 90% | 80% | 80% | 40% | 20% | 100% | 100% | 100% | 100% |
| O=C1CCCC(=O)C1C(=O)c1cc2ccc(=O)n(CC(F)F)c2nc1C(F)(F)F [Compound 2.4, 2-{8-(2,2-difluoroethyl)-7-oxo-7,8-dihydro-2-trifluoromethyl-[1,8]-naphthyridine-3-carbony}-cyclohexane-1,3-dione] | 60 | 60 | 70 | 80 | 90 | 40 | 90 | 90 | 70 | 90 | – | – | – | – | – | – | – | – | – | – |
| COCCN(C)c1nc2nc(C(F)(F)F)c(C(=O)C3C(=O)CCCC3=O)cc2cc1F [Compound 1.80, 2-[6-fluoro-7-(2-methoxyethylmethylamino)-2-trifluoromethyl-[1,8]-naphthyridine-3-carbony]-cyclohexane-1,3-dione] | 80 | 80 | 90 | 80 | 80 | 80 | 100 | 100 | 100 | 100 | – | – | – | – | – | – | – | – | – | – |
